Values joined by “and” are separate entries in the source; they are usually repeats but may differ in a detail not shown here. Identical values can stand only once.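 Following 48 hours of exposure in 96-well plates, responses at five concentrations were used to interpolate endpoints linearly. GI50: concentration for 50% inhibition of growth. TGI: total growth inhibition.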
Legend:
Experiment in all cases: NCI-60 cell line screen, 48 h
[1] = test system: ACHN renal
[2] = test system: HS 578T breast
[3] = test system: NCI-H23 lung
[4] = test system: OVCAR-8 ovarian
[5] = test system: RXF 393 renal
[6] = test system: SK-MEL-28 melanoma
[7] = test system: SK-MEL-5 melanoma
[8] = test system: SR leukemia
[9] = test system: U251 CNS
[10] = test system: UACC-257 melanoma

Row | SMILES | GI50 [1] | TGI [1] [µM] | GI50 [2] | TGI [2] [µM] | GI50 [3] | TGI [3] [µM] | GI50 [4] | TGI [4] [µM] | GI50 [5] [µM] | TGI [5] [µM] | GI50 [6] [µM] | TGI [6] [µM] | GI50 [7] | TGI [7] [µM] | GI50 [8] [µM] | TGI [8] [µM] | GI50 [9] | TGI [9] [µM] | GI50 [10] [µM] | TGI [10] [µM]
1 | S=C(N/N=C/c1ccccn1)Nc1ccccn1 | 1.56 µM | > 100 | 4.8 µM | > 100 | 3.23 µM | > 100 | 0.671 µM | > 100 | 0.485 | 4.15 | 2.51 | > 100 | 0.874 µM | 11.3 | 0.52 | > 100 | 1.07 µM | 24 | 0.903 | 5.85
2 | COC(=O)Nc1nc2ccccc2c(=O)[nH]1 |  | > 100 |  | > 100 |  | > 100 |  | > 100 |  | > 100 |  | > 100 |  | > 100 |  | > 100 |  | > 100 |  | > 100
3 | Cn1c(=O)c2[nH]c(CS(=O)(=O)Cc3nc4c([nH]3)c(=O)n(C)c(=O)n4C)nc2n(C)c1=O |  | > 100 |  | > 100 |  | > 100 |  | > 100 |  | > 100 |  | > 100 |  | > 100 |  | > 100 |  | > 100 |  | > 100
4 | CCN(CC)CCCCCCCNc1c2ccc(Cl)cc2nc2ccc(OC)cc12 | 0.829 µM | 4.93 | 1.79 µM | 4.39 | 1.14 µM | 2.84 | 0.628 µM | 2.9 | 0.84 | 2.35 | 1.91 | 3.64 | 1.68 µM | 3.09 | 0.238 | 0.634 | 0.706 µM | 1.93 | 1.27 | 3.08
5 | CC1(C)OCC(CO)(Nc2nc(N3CC3)nc(N3CC3)n2)CO1 |  | 13.9 |  | 42.6 |  | 16.3 |  | 33.1 |  | 28.6 |  | 53 |  | 22.1 |  | 28.9 |  | 31.7 |  | 45.1
6 | Cc1ccc2c(=O)c3cccc(CC(=O)O)c3oc2c1C | > 100 µM | > 100 | > 100 µM | > 100 | > 100 µM | > 100 | > 100 µM | > 100 | > 100 | > 100 | > 100 | > 100 | > 100 µM | > 100 | > 100 | > 100 | > 100 µM | > 100 | > 100 | > 100
7 | CCOC(=O)Oc1c(OC)cc(C(=O)O[C@@H]2C[C@@H]3CN4CCc5c([nH]c6cc(OC)ccc56)[C@H]4C[C@@H]3[C@H](C(=O)OC)[C@H]2OC)cc1OC | 4.16 µM | 21.7 | 7.09 µM | 55.9 | 5.24 µM | 21.8 | 4.94 µM | 21.1 | 5.03 | 19.1 | 6.32 | 18.8 | 7.86 µM | 20.7 | 3.61 | > 100 | 4.24 µM | 15.1 | 12.4 | 30.4
8 | CN(C)c1ccc2c3c(c(=O)oc2c1)CCC3 |  | > 100 |  | > 100 |  | > 100 |  | > 100 |  | > 100 |  | > 100 |  | > 100 |  | > 100 |  | > 100 |  | > 100
9 | O=C(NC(=S)Nc1ccc(Cl)cc1)c1ccccc1 | > 100 µM | > 100 | 38.8 µM | > 100 | > 100 µM | > 100 | > 100 µM | > 100 | > 56.2 | > 100 | > 100 | > 100 | > 100 µM | > 100 | > 100 | > 100 | > 77.2 µM | > 100 | > 100 | > 100
10 | CCOC(CN=c1nc(N(C)C)ss1)OCC |  | 58.7 |  | > 82.5 |  | 65.8 |  | 46.7 |  | 37.3 |  | 58.9 |  | > 100 |  | 12.2 |  | 29.9 |  | 40.7
11 | C[C@]12CCC(=O)C(O)=C1CC[C@@H]1[C@@H]2CC[C@]2(C)C(=O)CC[C@@H]12 |  | > 100 |  | > 100 |  | > 100 |  | > 100 |  | > 100 |  | > 100 |  | > 100 |  | > 100 |  | > 100 |  | > 100
12 | CCN(CC)CCOc1ccc(/C=C2\CC3C4CC=C5C[C@@H](N6CCCC6)CC[C@]5(C)C4CC[C@]3(C)[C@H]2O)cc1OC (stereo partly specified) | 5.94 µM | 26.2 | 0.76 µM | 13.6 | 8.87 µM | 25.1 | 5.16 µM | > 40.8 | 3.79 | 17.8 | 20.5 | > 65.7 | 0.336 µM | 1.95 | 0.224 | 0.648 | 3.08 µM | 20.5 | 6.82 | 14.9
13 | COc1cc(/C=C/C(=O)c2ccc(Cl)cc2)ccc1OS(=O)(=O)c1ccc(C)cc1 | 9.68 µM | 22.2 | 3.99 µM | > 100 | 13.3 µM | 43.6 | 3.23 µM | 16 | 13.2 | 29.5 | 18.3 | 47.5 | 12.4 µM | 25.1 | 1.9 | 6.56 | 2.18 µM | 5.38 | 14 | 36.3
14 | C=C1C(=O)OC2CC3(CO3)C3C(O)C(O)CC3(C)CC12 (stereo unspecified) |  | 35.5 |  | > 100 |  | 47.9 |  | 45.3 |  | 31.9 |  | 34.8 |  | 42 |  | 87.4 |  | > 100 |  | > 100
15 | COc1ccc(/C=C\c2cc(OC)c(OC)c(OC)c2)cc1OCC(=O)Nc1nc2ccc(C(F)(F)F)cc2s1 | 4.83 µM | > 100 | 4.18 µM | > 100 | 3.9 µM | > 100 | 3.86 µM | > 100 |  |  | 3 | > 100 | 2.84 µM | 13.9 | 3.35 | > 100 | 3.67 µM | > 100 | 40 | > 100
16 | O=C(Nc1ncc(Cc2ccccc2Cl)s1)c1ccc2c(c1)OCCO2 | 0.776 µM | > 65.1 | 0.354 µM | 35.5 | 0.625 µM | > 100 | 0.479 µM | > 100 | 0.255 | 1.19 | 1.66 | > 59 | 0.334 µM | 1.81 | 0.206 | > 100 | 0.4 µM | > 51.6 | 6.27 | > 82.1
17 | COc1ccc(-c2nc(-c3cn(C)c4ncccc34)cs2)cc1 | 91.7 µM | > 100 | > 100 µM | > 100 | > 100 µM | > 100 | > 100 µM | > 100 | 55.2 | > 100 | 79.3 | > 100 | 16.9 µM | > 100 | 9.7 | > 100 | 78.5 µM | > 100 | > 100 | > 100
18 | O=C(CCCn1ccnc1[N+](=O)[O-])NCCn1ccnc1 |  | > 100 |  | > 100 |  | > 100 |  | > 100 |  |  |  | > 100 |  | > 100 |  | > 100 |  | > 100 |  | > 100
19 | O=C(Nc1ccc(Cl)cc1)c1cc2ccccc2cc1O | 3.34 µM | > 100 | 2.68 µM | 11.9 | 2 µM | > 100 | 3.67 µM | > 100 | 7.19 | > 100 | 7.62 | > 100 | 1.84 µM | 5.51 | 3.93 | > 100 | 2.54 µM | 29.5 | 3.25 | 7.91
20 | CCSc1nc(N=Cc2cccs2)c2cn[nH]c2n1 | 16.2 µM | > 100 | 16.2 µM | > 100 | 11.2 µM | 23.2 | 55.9 µM | > 100 | 2.85 | 7.72 | 22.3 | > 100 | 7.35 µM | 38.1 | 2.1 | 7.21 | 69.4 µM | > 100 | 61 | > 100
21 | COc1ccc(-c2cn[nH]c2-c2cc(OC)c(OC)c(OC)c2)cc1N | < 0.01 µM and 0.044 µM | > 100 | < 0.01 µM and 0.0233 µM | > 100 | < 0.01 µM and 0.0634 µM | > 100 | < 0.01 µM and 0.0519 µM | > 100 | 0.0247 | > 100 |  | > 100 | < 0.01 µM and 0.0405 µM |  | < 0.01 | > 100 | < 0.01 µM and 0.0404 µM | > 100 | 28.4 | > 100
22 | CC(=O)OC(C)(C)/C=C/C(=O)[C@](C)(O)[C@H]1[C@H](O)C[C@@]2(C)[C@@H]3CC=C4[C@@H](C[C@H](O)C(=O)C4(C)C)[C@]3(C)C(=O)C[C@]12C |  | < 0.03 |  | < 0.01 |  | 4.07 |  | 5.8 |  | < 0.0128 |  | < 0.01 |  | 0.135 |  | 1.21 |  | < 0.01 |  | 2.42
23 | O=C1CCC2(C=C(Br)C(=O)C(Br)=C2)O1 | 1.78 µM | 3.19 | 20.4 µM | 57.3 | 12 µM | 30 | 3.45 µM | 11.5 | 2.82 | 6.96 | 1.69 | 3.87 | 16.4 µM | 30 | 2.59 | 9.69 | 14.7 µM | 28.9 | 3.52 | 9.28
24 | O=[N+]([O-])/C=C/c1c[nH]c2ccccc12 | 17.1 µM | 32.3 | 21.2 µM | 66.6 | 15 µM | 31 | 21.6 µM | 49.4 | 19.5 | 35.1 | 17.4 | 32.5 | 16 µM | 32.1 | 2.92 | 7.18 | 12.8 µM | 26.7 | 16.5 | 30.6
25 | O=C(C(Br)Br)C(Br)C(Br)c1ccccc1 (stereo unspecified) | 1.68 µM | 3.18 | 43.5 µM | > 100 | 5.16 µM | 27.5 | 3.16 µM | > 100 | 1.7 | 3.45 | 6.7 | 22.1 | 10.6 µM | 22.7 | 1.61 | 3.68 | 2.96 µM | 10.8 | 2.39 | 7.24
26 | Cc1[nH]c(/C=C2\C(=O)Nc3ccc(F)cc32)c(C)c1C(=O)NC[C@H](O)CN1CCOCC1 | 3.49 µM | > 10 | 2.12 µM | > 10 | 2.41 µM | > 10 | 5.41 µM | > 10 | 2.33 | > 10 | 4.16 | > 10 | 4.04 µM | > 10 | 3.41 | > 10 | 6.65 µM | > 10 | 8.67 | > 10
27 | COC(=O)/C(=C\c1c(C)[nH]c2ccccc12)S(=O)(=O)c1ccccc1 | 5.52 µM | 18.5 | 2.85 µM | 13.6 | 4.81 µM | 29.5 | 3.94 µM | > 100 | 3.63 | 31.9 | 5.78 | 18.7 |  |  | 1.05 | > 100 | 3.42 µM | 12.6 | 6.97 | 20.9
28 | COc1ccc(-c2nc(-c3ccccc3)c(-c3ccccc3)n2C2CC2)cc1OC1CCCC1 | 58 µM | > 165 | 26.3 µM | > 165 | > 165 µM | > 165 | 66.6 µM | > 165 |  |  | > 165 | > 165 | 16.7 µM | 125 | 7.92 | 59.4 | 30.2 µM | > 165 | > 165 | > 165

— PubChem BioAssay (NCI)
